Reference: US9493478B2, “Fused ring compound containing furan or salt thereof and pharmaceutical composition comprising same” (YUHAN CORPORATION, priority 2012, dated 2016)

Key:
Format in all cases: biochemical
PI3Kγ (p120γ)(h) = PI3Kγ (p120γ)(h) (Homo sapiens, UniProt P48736); experiment: Assay for phosphatidylinositol 3-kinase gamma (PI3Kγ) activity, PI3K-HTRF kit; settings: TR-FRET; enzyme 1.45 μg/ml, 10 μM PIP2, 10 μM ATP
In short: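 Recombinant PI3Kγ (1.45 μg/ml final) preincubated ~10 min with compound, then reacted with 10 μM PIP2 and 10 μM ATP for 90 min at room temperature. PIP3 detected by HTRF (biotin-PIP3/Eu-PH domain/APC), 665/620 nm ratio after 6 h; IC50 from inhibition relative to controls.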

PI3Kα (p110α/p85α)(h) = PI3Kα (p110α/p85α)(h) (Homo sapiens, UniProt P42336); experiment: Assay for phosphatidylinositol 3-kinase alpha (PI3Kα) activity, PI3K-HTRF kit; settings: TR-FRET; enzyme 0.3625 μg/ml, 10 μM PIP2, 10 μM ATP
PI3K β (p110β/p85α)(h) = PI3K β (p110β/p85α)(h) (Homo sapiens, UniProt P42338); experiment: Assay for phosphatidylinositol 3-kinase beta (PI3Kβ) activity, PI3K-HTRF kit; settings: TR-FRET; enzyme 0.725 μg/ml, 10 μM PIP2, 10 μM ATP
PI3Kδ (p110δ/p85α)(h) = PI3Kδ (p110δ/p85α)(h) (Homo sapiens, UniProt O00329); experiment: Assay for phosphatidylinositol 3-kinase delta (PI3Kδ) activity, PI3K-HTRF kit; settings: TR-FRET; enzyme 0.725 μg/ml, 10 μM PIP2, 10 μM ATP
PI3Kδ (p110δ/p85α)(h), sequence (O00329 whole entry): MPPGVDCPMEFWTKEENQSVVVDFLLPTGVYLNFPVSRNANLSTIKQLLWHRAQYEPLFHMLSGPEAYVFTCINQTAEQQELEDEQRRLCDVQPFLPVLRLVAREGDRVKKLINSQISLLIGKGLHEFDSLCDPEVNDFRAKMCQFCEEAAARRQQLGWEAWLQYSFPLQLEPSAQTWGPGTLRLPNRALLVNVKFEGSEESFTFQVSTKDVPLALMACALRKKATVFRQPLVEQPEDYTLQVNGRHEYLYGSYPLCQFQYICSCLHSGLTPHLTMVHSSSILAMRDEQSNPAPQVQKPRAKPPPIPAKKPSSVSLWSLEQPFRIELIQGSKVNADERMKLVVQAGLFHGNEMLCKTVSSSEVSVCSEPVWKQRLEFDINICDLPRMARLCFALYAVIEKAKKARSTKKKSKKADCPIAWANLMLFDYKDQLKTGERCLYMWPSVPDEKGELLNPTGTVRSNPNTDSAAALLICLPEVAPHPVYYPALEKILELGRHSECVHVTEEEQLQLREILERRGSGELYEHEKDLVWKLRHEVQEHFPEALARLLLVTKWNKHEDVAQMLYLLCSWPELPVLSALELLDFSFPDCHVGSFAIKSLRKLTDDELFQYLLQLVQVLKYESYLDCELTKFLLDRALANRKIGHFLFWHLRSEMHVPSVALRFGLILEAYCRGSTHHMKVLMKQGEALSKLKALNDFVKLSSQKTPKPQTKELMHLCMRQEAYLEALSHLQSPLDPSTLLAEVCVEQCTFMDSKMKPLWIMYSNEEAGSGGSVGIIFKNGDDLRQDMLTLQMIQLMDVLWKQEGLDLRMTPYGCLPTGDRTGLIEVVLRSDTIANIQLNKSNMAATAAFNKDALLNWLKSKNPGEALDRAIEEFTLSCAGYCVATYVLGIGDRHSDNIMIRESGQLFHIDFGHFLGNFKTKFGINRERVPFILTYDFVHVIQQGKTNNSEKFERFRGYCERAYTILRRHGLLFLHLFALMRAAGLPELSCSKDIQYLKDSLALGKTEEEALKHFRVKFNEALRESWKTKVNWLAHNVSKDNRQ
PI3Kδ (p110δ/p85α)(h), sequence (P27986 whole entry partner): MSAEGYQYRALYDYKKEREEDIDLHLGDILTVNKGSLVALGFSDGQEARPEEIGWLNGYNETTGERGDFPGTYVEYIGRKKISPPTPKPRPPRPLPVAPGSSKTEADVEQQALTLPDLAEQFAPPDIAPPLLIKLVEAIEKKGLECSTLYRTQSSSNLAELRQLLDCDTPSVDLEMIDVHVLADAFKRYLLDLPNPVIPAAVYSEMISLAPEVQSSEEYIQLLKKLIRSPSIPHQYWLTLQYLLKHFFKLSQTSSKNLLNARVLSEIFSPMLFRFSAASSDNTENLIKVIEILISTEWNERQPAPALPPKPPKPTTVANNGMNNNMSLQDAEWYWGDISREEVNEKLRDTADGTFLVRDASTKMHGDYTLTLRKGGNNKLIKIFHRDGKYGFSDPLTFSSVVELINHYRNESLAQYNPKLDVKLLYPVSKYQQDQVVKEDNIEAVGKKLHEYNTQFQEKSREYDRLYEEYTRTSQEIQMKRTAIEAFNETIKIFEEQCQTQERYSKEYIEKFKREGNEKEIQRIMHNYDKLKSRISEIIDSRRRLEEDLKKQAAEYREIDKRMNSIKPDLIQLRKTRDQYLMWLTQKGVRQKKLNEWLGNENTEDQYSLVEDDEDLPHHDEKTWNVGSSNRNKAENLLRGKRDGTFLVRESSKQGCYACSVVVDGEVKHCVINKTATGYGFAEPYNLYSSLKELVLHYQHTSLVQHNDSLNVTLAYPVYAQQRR

PI3K β (p110β/p85α)(h), sequence (P42338 whole entry): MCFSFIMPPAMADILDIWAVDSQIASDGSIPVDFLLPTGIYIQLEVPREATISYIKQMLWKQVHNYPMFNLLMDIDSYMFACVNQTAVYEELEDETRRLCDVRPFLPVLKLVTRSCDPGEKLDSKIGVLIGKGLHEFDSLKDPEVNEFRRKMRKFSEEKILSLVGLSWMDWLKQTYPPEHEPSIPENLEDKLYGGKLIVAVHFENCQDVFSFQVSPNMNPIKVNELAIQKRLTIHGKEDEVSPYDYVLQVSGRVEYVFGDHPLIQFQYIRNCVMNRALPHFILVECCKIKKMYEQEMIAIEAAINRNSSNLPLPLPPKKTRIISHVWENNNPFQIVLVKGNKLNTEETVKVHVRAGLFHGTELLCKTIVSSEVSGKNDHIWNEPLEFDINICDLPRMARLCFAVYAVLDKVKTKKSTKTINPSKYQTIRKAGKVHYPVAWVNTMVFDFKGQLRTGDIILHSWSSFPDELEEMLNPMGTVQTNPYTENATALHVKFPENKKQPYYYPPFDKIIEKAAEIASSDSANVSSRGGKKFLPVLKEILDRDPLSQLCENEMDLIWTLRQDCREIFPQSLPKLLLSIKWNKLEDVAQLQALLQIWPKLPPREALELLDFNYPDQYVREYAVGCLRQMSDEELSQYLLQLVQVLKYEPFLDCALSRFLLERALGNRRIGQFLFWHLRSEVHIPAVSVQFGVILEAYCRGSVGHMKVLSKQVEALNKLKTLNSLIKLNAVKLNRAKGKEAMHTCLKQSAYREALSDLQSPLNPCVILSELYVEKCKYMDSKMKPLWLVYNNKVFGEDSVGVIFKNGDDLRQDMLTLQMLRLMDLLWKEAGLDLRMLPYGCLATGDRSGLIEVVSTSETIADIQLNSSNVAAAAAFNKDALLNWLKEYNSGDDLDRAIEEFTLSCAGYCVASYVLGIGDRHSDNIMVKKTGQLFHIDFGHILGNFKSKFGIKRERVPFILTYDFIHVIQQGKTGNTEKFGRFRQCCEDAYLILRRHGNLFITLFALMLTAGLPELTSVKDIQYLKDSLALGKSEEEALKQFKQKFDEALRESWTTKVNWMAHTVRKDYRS
PI3K β (p110β/p85α)(h), sequence (P27986 whole entry partner): as the sequence (P27986 whole entry partner) above
PI3Kα (p110α/p85α)(h), sequence (P42336 whole entry): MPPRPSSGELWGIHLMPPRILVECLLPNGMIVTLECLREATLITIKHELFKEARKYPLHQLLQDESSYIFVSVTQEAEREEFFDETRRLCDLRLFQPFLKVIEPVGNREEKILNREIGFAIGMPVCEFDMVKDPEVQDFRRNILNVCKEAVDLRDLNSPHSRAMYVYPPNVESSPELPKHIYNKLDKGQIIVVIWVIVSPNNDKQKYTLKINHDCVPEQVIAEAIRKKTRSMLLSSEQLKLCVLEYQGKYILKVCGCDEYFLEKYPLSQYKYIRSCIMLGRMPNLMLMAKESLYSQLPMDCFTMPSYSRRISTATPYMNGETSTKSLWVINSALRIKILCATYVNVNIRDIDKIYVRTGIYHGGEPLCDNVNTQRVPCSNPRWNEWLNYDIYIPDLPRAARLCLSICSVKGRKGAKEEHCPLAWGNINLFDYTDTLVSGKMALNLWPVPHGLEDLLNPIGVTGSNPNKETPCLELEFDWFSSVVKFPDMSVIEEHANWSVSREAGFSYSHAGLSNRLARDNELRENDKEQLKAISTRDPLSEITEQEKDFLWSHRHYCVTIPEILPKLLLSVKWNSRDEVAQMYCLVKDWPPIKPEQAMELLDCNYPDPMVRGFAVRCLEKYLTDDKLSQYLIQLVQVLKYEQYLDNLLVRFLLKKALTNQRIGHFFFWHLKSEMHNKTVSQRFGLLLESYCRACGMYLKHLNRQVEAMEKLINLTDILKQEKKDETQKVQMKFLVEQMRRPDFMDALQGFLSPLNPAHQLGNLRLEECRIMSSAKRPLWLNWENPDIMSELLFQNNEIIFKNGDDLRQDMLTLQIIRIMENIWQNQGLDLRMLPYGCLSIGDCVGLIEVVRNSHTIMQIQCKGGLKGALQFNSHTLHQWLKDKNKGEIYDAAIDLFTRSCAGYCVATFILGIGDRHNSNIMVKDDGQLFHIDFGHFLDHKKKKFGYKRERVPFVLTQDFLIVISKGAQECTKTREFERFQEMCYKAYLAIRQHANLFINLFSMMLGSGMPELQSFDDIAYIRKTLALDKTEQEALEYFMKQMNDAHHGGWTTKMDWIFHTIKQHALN
PI3Kα (p110α/p85α)(h), sequence (P27986 whole entry partner): as the sequence (P27986 whole entry partner) above
PI3Kγ (p120γ)(h), sequence (P48736 whole entry, the tested form may be a part): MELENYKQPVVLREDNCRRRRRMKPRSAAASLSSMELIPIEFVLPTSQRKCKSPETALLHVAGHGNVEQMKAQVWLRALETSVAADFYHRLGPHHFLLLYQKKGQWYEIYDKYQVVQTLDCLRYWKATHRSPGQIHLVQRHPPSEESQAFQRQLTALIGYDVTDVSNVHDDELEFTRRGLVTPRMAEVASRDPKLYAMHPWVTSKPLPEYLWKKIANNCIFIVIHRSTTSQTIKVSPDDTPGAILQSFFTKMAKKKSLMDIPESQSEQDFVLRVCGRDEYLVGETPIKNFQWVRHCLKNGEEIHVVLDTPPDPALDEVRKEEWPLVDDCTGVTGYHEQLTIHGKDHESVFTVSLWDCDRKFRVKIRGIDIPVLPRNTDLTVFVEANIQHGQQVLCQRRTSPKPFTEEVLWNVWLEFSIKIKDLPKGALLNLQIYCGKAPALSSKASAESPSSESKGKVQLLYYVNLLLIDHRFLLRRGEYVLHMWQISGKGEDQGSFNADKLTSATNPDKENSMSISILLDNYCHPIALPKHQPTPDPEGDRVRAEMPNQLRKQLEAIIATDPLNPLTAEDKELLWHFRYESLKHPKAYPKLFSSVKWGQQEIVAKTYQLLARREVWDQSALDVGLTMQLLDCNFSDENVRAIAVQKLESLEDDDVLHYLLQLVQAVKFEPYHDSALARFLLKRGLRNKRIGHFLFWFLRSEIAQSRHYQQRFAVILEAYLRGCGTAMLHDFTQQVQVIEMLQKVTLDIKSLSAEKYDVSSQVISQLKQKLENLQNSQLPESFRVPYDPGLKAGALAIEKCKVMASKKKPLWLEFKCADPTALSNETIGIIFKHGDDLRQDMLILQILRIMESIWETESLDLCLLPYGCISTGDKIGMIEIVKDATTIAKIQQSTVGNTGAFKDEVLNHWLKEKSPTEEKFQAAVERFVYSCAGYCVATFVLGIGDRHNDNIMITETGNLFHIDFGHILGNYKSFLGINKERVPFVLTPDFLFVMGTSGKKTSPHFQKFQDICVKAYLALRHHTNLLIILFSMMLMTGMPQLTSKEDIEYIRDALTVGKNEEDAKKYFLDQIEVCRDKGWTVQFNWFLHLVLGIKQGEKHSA

Row | IC50 (PI3Kγ (p120γ)(h)) [nM] | IC50 (PI3Kα (p110α/p85α)(h)) [nM] | IC50 (PI3K β (p110β/p85α)(h)) [nM] | IC50 (PI3Kδ (p110δ/p85α)(h)) [nM] | Compound
1 | 28 | 8 | 177 | 590 | CS(=O)(=O)c1ccc(-c2cncc3cc(/C=C4\SC(=O)NC4=O)oc23)cc1 [Example 40, (Z)-5-([7-{4-(Methylsulfonyl)phenyl}furo[3,2-c]pyridin-2-yl]methylene)thiazolidine-2,4-dione]
2 | 78 | 67 | 8620 | > 10000 | CC(C)c1ccccc1C#Cc1cncc2cc(/C=C3\SC(=S)NC3=O)oc12 [Example 554, (Z)-5-([7-{(2-Isopropylphenyl)ethynyl}furo[3,2-c]pyridin-2-yl]methylene)-2-thioxothiazolidin-4-one]
3 | 13 | 8 | 4650 | > 10000 | COc1cc(C#Cc2cncc3cc(/C=C4\SC(=O)NC4=O)oc23)cc(OC)c1 [Example 450, (Z)-5-([7-{(3,5-Dimethoxyphenyl)ethynyl}furo[3,2-c]pyridin-2-yl]methylene)thiazolidine-2,4-dione]
4 | 10 | 2 | > 10000 | > 10000 | O=C1NC(=O)/C(=C/c2cc3cncc(C#Cc4cccc(C(F)(F)F)c4)c3o2)S1 [Example 441, (Z)-5-{(7-[{3-(Trifluoromethyl)phenyl}ethynyl]furo[3,2-c]pyridin-2-yl)methylene}thiazolidine-2,4-dione]
5 | 12 | 58 | > 10000 | > 10000 | O=C1NC(=O)/C(=C/c2cc3cncc(C#Cc4ccccc4)c3o2)S1 [Example 125, (Z)-5-[{7-(Phenylethynyl)furo[3,2-c]pyridin-2-yl}methylene]thiazolidine-2,4-dione]
6 | 17 | 2 | 82 | 73 | COc1ccc(C#Cc2cncc3cc(/C=C4\SC(=S)NC4=O)oc23)cc1OC [Example 512, (Z)-5-([7-{(3,4-Dimethoxyphenyl)ethynyl}furo[3,2-c]pyridin-2-yl]methylene)-2-thioxothiazolidin-4-one]
7 | 17 | 40 | 480 | 747 | CNS(=O)(=O)c1ccc(-c2cncc3cc(/C=C4\SC(=O)NC4=O)oc23)cc1F [Example 279, (Z)-4-[2-{(2,4-Dioxothiazolidin-5-ylidene)methyl}furo[3,2-c]pyridin-7-yl]-2-fluoro-N-methylbenzenesulfonamide]
8 | 95 | 22 | 337 | 98 | O=C1NC(=O)/C(=C/c2cc3cncc(-c4cccc(CN5CCCCC5)c4)c3o2)S1 [Example 132, (Z)-5-([7-{3-(Piperidin-1-ylmethyl)phenyl}furo[3,2-c]pyridin-2-yl]methylene)thiazolidine-2,4-dione]
9 | 19 | 10 | > 10000 | 9300 | CS(=O)(=O)c1c(F)cc(-c2cncc3cc(/C=C4\SC(=S)NC4=O)oc23)cc1F [Example 332, (Z)-5-([7-{3,5-Difluoro-4-(methylsulfonyl)phenyl}furo[3,2-c]pyridin-2-yl]methylene)-2-thioxothiazolidin-4-one]
10 | 56 | 15 | 630 | > 10000 | COc1ncc(-c2cncc3cc(/C=C4\SC(=S)NC4=O)oc23)cc1C#N [Example 328, (Z)-2-Methoxy-5-[2-{(4-oxo-2-thioxothiazolidin-5-ylidene)methyl}furo[3,2-c]pyridin-7-yl]nicotinonitrile]
11 | 182 | 17 | 869 | 205 | COc1ccccc1NC(=O)c1cncc2cc(/C=C3\SC(=O)NC3=O)oc12 [Example 412, (Z)-2-{(2,4-Dioxothiazolidin-5-ylidene)methyl}-N-(2-methoxyphenyl)furo[3,2-c]pyridine-7-carboxamide]
12 | 10 | 3 | 468 | 41 | COC(=O)c1ccccc1C#Cc1cncc2cc(/C=C3\SC(=S)NC3=O)oc12 [Example 558, (Z)-Methyl 2-([2-{(4-oxo-2-thioxothiazolidin-5-ylidene)methyl}furo[3,2-c]pyridin-7-yl]ethynyl)benzoate]
13 | 15 | 14 | 1940 | 52 | Cc1cc(-c2cncc3cc(/C=C4\SC(=O)NC4=O)oc23)ccc1S(=O)(=O)N1CCOCC1 [Example 307, (Z)-5-([7-{3-Methyl-4-(morpholinosulfonyl)phenyl}furo[3,2-c]pyridin-2-yl]methylene)thiazolidine-2,4-dione]
14 | 18 | 5 | 3470 | 120 | O=C1NC(=S)S/C1=C\c1cc2cncc(C#Cc3ccsc3)c2o1 [Example 555, (Z)-5-[{7-(Thiophen-3-ylethynyl)furo[3,2-c]pyridin-2-yl}methylene]-2-thioxothiazolidin-4-one]
15 | 5 | 6 | > 10000 | > 10000 | COc1ccc(-c2cncc3cc(/C=C4\SC(=O)NC4=O)oc23)cc1 [Example 25, (Z)-5-[{7-(4-Methoxyphenyl)furo[3,2-c]pyridin-2-yl}methylene]thiazolidine-2,4-dione]
16 | 13 | 12 | 100 | 322 | CSc1ccc(-c2cncc3cc(/C=C4\SC(=O)NC4=O)oc23)cn1 [Example 41, (Z)-5-([7-{6-(Methylthio)pyridin-3-yl}furo[3,2-c]pyridin-2-yl]methylene)thiazolidine-2,4-dione]
17 | 17 | 2 | 5090 | 37 | COc1ccc(C#Cc2cncc3cc(/C=C4\SC(=O)NC4=O)oc23)cc1OC [Example 469, (Z)-5-([7-{(3,4-Dimethoxyphenyl)ethynyl}furo[3,2-c]pyridin-2-yl]methylene)thiazolidine-2,4-dione]
18 | 6 | 40 | 1370 | 460 | COc1ccc(-c2cncc3cc(/C=C4\SC(=O)NC4=O)oc23)cn1 [Example 30, (Z)-5-[{7-(6-Methoxypyridin-3-yl)furo[3,2-c]pyridin-2-yl}methylene]thiazolidine-2,4-dione]
19 | 51 | 11 | 1140 | 8330 | COc1ccc(NC(=O)c2cncc3cc(/C=C4\SC(=S)NC4=O)oc23)cc1 [Example 425, (Z)—N-(4-Methoxyphenyl)-2-{(4-oxo-2-thioxothiazolidin-5-ylidene)methyl}furo[3,2-c]pyridine-7-carboxamide]
20 | 24 | 3 | > 10000 | 1270 | COC(=O)c1cccc(C#Cc2cncc3cc(/C=C4\SC(=O)NC4=O)oc23)c1 [Example 542, (Z)-Methyl 3-([2-{(2,4-dioxothiazolidin-5-ylidene)methyl}furo[3,2-c]pyridin-7-yl]ethynyl)benzoate]
21 | 3 | 2 | 156 | 1900 | Cc1cc(-c2cncc3cc(/C=C4\SC(=S)NC4=O)oc23)cnc1F [Example 195, (Z)-5-[7-(6-Fluoro-5-methylpyridin-3-yl)-furo[3,2-c]pyridin-2-ylmethylene]-2-thioxothiazolidin-4-one]
22 | 7 | 1 | 466 | 143 | Cc1ccccc1C#Cc1cncc2cc(/C=C3\SC(=O)NC3=O)oc12 [Example 454, (Z)-5-[{7-(o-Tolylethynyl)furo[3,2-c]pyridin-2-yl}methylene]thiazolidine-2,4-dione]
23 | 16 | 10 | 115 | 246 | O=C1NC(=S)S/C1=C\c1cc2cncc(-c3ccc(F)nc3)c2o1 [Example 153, (Z)-5-[{7-(6-Fluoropyridin-3-yl)furo[3,2-c]pyridin-2-yl}methylene]-2-thioxothiazolidin-4-one]
24 | 5 | 3 | 3570 | 6250 | COc1ccc(-c2cncc3cc(/C=C4\SC(=O)NC4=O)oc23)cc1C(F)(F)F [Example 90, (Z)-5-([7-{4-Methoxy-3-(trifluoromethyl)phenyl}furo[3,2-c]pyridin-2-yl]methylene)thiazolidine-2,4-dione]
25 | 7 | 2 | 2270 | 618 | Cc1ccccc1C#Cc1cncc2cc(/C=C3\SC(=S)NC3=O)oc12 [Example 498, (Z)-2-Thioxo-5-[{7-(o-tolylethynyl)furo[3,2-c]pyridin-2-yl}methylene]thiazolidin-4-one]
26 | 7 | 10 | > 10000 | > 10000 | COc1c(C)cc(-c2cncc3cc(/C=C4\SC(=S)NC4=O)oc23)cc1C [Example 196, (Z)-5-[7-(4-Methoxy-3,5-dimethylphenyl)furo[3,2-c]pyridin-2-ylmethylene]-2-thioxothiazolidin-4-one]

Row | Compound | IC50 (PI3Kγ (p120γ)(h)) [nM] | IC50 (PI3Kα (p110α/p85α)(h)) [nM] | IC50 (PI3K β (p110β/p85α)(h)) [nM] | IC50 (PI3Kδ (p110δ/p85α)(h)) [nM]
27 | 5-[{7-(p-Tolylethynyl)furo[3,2-c]pyridin-2-yl}methyl]thiazolidine-2,4-dione [Example 520] | 11 | 15 | 9740 | > 10000
